# Patent publication US20100040568A1, “Steroidal compounds as melanogenesis modifiers and uses thereof” (SkinMedica, Inc., priority 2008, published 2010)
# Legend:
# melan-a cells [1] = experiment: Melanin assay in cultured murine melanocytes (melan-a); assay type: cell-based; conditions: 72 hours
# Method: The Spectrum Collection library consisting of 2000 drug compounds or natural products was screened to identify novel pigmentation inhibitors or stimulators in cultured murine melanocytes (melan-a). Compounds were dissolved in dimethylsulfoxide (DMSO) to a final concentration of 10 mM. Screening was performed with cultured melanocytes in 24-well plates followed by melanin assay (see below). A minimum change of 50% in melanin formation was established as significant for a pigmentation inhibitor or stimulator. DMSO was used as a negative control and the widely used depigmenting agent, hydroquinone, was used as a positive control on every plate. […] Melan-a cells were plated at 5×10^4 cells per well in 1 ml of culture media in 24-well plates the day before adding the library compounds. All compounds were added at the indicated final concentrations. Cells were harvested after 72 hours of incubation, and melanin assay was performed. For the primary and secondary screening, cells were harvested and dissolved in 200 μl of 2N NaOH in 20% DMSO at 70° C. A 180-μl aliquot of the resulting solution was measured for absorbance at 490 nm. Cells are harvested in extraction buffer (1% Triton X-100, 50 mM Tris, 2 mM EDTA, 150 mM NaCl, pH 7.5) containing a complete protease inhibitor cocktail (Roche). The lysates were centrifuged at 14,000 rpm for 10 minutes at 4° C. BCA protein assay kit (Pierce) was used to measure the protein concentrations of the supernatants, and bovine serum albumin was used as a standard. […] A 180-μl aliquot of the resulting solution was measured for absorbance at 490 nm. The melanin contents were normalized to the total amount of protein. The IC50 value for inhibition of cellular melanin synthesis for conessine was determined by culturing melan-a cells with various concentrations of conessine for 72 hours. Briefly, melan-a cells were plated at 5×10^4 cells per well in 1 ml of culture media in 24-well plates the day before adding conessine. Conessine was added at the indicated final concentrations. DMSO was used as a negative control. Cells were harvested after 72 hours of incubation, and spectrophotometric melanin assay was performed on cell pellets. The melanin contents were normalized to the total amount of protein. Cell viability was determined by using the CellTiter 96 aqueous nonradioactive cell proliferation assay. […] Licorice extract was tested under similar conditions as conessine for its ability to decrease melanin synthesis in melan-a cells (FIG. 11c). Melan-a cells were plated at 5×10^4 cells per well in 1 ml of culture media in 24-well plates the day before adding Licorice extract. 70% ethanol was used as control and the Licorice extract was diluted in cell culture media at the indicated concentrations. […] Cells were harvested after 72 hours of incubation, and spectrophotometric melanin assay was performed on cell pellets. The melanin contents were normalized to the total amount of protein. Cell viability was determined by using the CellTiter 96 aqueous nonradioactive cell proliferation assay.
# melan-a cells [2] = experiment: CellTiter 96 aqueous nonradioactive cell proliferation assay (cell viability); assay type: cell-based, murine; conditions: concentrations below 20 μM
# Method: The IC50 value for inhibition of cellular melanin synthesis for conessine was determined by culturing melan-a cells with various concentrations of conessine for 72 hours. Briefly, melan-a cells were plated at 5×10^4 cells per well in 1 ml of culture media in 24-well plates the day before adding conessine. Conessine was added at the indicated final concentrations. DMSO was used as a negative control. Cells were harvested after 72 hours of incubation, and spectrophotometric melanin assay was performed on cell pellets. The melanin contents were normalized to the total amount of protein. Cell viability was determined by using the CellTiter 96 aqueous nonradioactive cell proliferation assay.
# tyrosinase = biological target: T1, tyrosinase (Mus musculus, UniProt P11344); experiment: Tyrosinase activity assay on melan-a cell lysates; assay type: biochemical, murine; conditions: for direct inhibition of tyrosinase enzymatic activity: melan-a cell lysates (10 μg) pre-incubated with conessine 10 μM for 30 minutes
# T1 construct: endogenous in cells; host or cells: melan-a cells (murine melanocytes), cell lysate
# T1 sequence (P11344 19-533): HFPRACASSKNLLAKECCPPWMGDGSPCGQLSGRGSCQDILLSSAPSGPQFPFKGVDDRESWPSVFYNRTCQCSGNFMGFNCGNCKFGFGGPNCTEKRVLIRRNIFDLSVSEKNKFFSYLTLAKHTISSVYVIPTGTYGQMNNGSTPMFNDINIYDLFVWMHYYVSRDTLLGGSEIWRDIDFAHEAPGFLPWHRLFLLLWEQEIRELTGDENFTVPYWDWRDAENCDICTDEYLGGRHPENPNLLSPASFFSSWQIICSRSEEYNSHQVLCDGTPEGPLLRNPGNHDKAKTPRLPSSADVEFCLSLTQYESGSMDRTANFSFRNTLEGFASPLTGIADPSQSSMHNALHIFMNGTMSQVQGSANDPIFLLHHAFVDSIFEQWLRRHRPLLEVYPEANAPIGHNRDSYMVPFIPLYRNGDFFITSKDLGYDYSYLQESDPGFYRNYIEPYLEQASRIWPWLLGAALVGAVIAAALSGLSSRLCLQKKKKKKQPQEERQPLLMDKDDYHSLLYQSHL
# Method: The effect of conessine on tyrosinase activity was studied in vitro using melan-a cell lysates.
# In one example, melan-a cell lysates (10 μg) were pre-incubated with either diluent, conessine (10 μM) or phenylthiourea (PTU, 300 μM, a known tyrosinase inhibitor) for 30 minutes at room temperature. Tyrosinase activity assay was performed in triplicate on melan-a cell lysates as previously described (Orlow et al. 1990).
# [3] = system: Microphthalmia transcription factor (MITF); experiment: Level of microphthalmia transcription factor in melan-a cells; assay type: cell-based, murine
# Method: Melan-a cells were incubated with various concentrations of conessine for 72 hours. Cell lysates were prepared and separated by 7.5% sodium dodecyl sulfate-polyacrylamide gel and transferred to Immobilon-P membranes. Tyrosinase gene family proteins were detected with antibodies against each protein. […] Microphthalmia transcription factor (MITF) is a transcription factor that regulates the expression of tyrosinase gene family. […] Thus, increased levels of tyrosinase gene family proteins with conessine treatment are not due to increased MITF expression in melan-a cells.
smiles,measurement,setting,value
"CC1C2CCC3C4CC=C5CC(N(C)C)CCC5(C)C4CCC32CN1C (stereo not drawn) [Compound 1, Conessine]",effect on melanin synthesis in melan-a cells,melan-a cells [1]; indicated concentrations,significantly inhibited melanogenesis in a dose-dependent manner
same,IC50,"melan-a cells [1]; Mus musculus, melan-a cells, melanin normalized to protein, read-out: IC50 value for inhibition of cellular melanin synthesis",~2.5 µM
same,% of control remaining @ 1 μM,"melan-a cells [1]; melanin, melan-a cells, 1 μM",73.3 % of control
same,% of control remaining @ 5 μM,"melan-a cells [1]; melanin, melan-a cells, 5 μM",32.2 % of control
same,cytotoxicity,melan-a cells [2],did not exhibit cytotoxicity
same,tyrosinase activity of lysates of pre-treated cells,tyrosinase; cells pre-incubated with conessine for 72 hrs before harvesting,No obvious difference in tyrosinase activity
same,direct inhibition of tyrosinase enzymatic activity,tyrosinase; listed as Conessine,did not directly inhibit tyrosinase activity
same,direct inhibition of tyrosinase enzymatic activity,tyrosinase; listed as conessine,does not directly inhibit tyrosinase enzymatic activity
same,level of MITF,[3],no notable effect
